In patent US9096624B2 (OSI Pharmaceuticals, LLC, priority 2009, dated 2015):

Legend:
FAK [1] = molecular target: T1, FAK (Homo sapiens, UniProt Q05397); assay: Cell-based capture ELISA for inhibition of FAK autophosphorylation [pY397] in MiaPaCa2 cells
Protocol: Cell-Based Assays for Inhibition of FAK Autophosphorylation: MiaPaCa2 and U87MG
ELISA kit from Invitrogen (KHO0441).
Reagents Provided in Biosource FAK [pY397]
The cells were then suspended in cell assay medium.

FAK [2] = molecular target: T1, FAK; assay: biochemical
[3] = MIA-PaCa2 cells, + 50% mouse plasma (Table 3), read-out: Mean FAK Cell Mechanistic IC50 + 50% mP MIA-PaCa2
[4] = MIA-PaCa2 cells on fibronectin, 2 h, no plasma, read-out: Mean FAK Cell Mechanistic IC50 MIA-PaCa2
[5] = MIA-PaCa2 cells, + 50% human plasma, read-out: Mean FAK Cell Mechanistic IC50 + 50% hP MIA-PaCa2
[6] = MIA-PaCa2 cells, + 50% mouse plasma (Table 2), read-out: Mean FAK Cell Mechanistic IC50 + 50% mP MIA-PaCa2

T1 sequence (Q05397 whole entry): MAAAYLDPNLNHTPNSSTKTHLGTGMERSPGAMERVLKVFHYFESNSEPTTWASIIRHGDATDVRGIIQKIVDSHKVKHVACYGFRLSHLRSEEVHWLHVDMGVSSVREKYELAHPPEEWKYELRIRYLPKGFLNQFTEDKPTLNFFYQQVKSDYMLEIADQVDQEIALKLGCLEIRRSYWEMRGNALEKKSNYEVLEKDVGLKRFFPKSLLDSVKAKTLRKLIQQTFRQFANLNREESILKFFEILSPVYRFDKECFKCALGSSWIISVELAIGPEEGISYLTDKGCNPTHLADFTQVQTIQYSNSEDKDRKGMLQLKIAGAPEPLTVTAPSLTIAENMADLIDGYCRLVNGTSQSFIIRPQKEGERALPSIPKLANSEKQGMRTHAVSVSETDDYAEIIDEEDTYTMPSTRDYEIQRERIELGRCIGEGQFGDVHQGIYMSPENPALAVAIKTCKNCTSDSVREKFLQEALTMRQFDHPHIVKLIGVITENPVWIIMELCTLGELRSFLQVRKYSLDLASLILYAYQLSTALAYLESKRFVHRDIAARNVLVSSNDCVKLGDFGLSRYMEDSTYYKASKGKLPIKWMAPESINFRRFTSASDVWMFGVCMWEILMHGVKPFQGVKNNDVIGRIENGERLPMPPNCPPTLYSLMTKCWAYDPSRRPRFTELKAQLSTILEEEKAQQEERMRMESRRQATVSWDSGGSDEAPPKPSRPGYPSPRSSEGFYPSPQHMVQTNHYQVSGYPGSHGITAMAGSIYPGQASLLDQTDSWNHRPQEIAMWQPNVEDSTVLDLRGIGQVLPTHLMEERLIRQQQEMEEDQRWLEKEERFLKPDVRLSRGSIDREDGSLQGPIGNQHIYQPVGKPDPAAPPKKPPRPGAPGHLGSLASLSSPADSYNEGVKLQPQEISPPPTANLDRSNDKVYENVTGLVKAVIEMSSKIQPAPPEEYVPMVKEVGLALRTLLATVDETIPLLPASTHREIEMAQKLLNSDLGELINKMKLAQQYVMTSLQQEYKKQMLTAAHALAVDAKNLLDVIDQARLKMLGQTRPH

IC50 (FAK [1]; [6])	Structure (SMILES)	IC50 (FAK [1]; [3])	IC50 (FAK [2])	IC50 (FAK [1]; [4])	IC50 (FAK [1]; [5])
	CCOP(=O)(Cc1ccc(Nc2ncc(C(F)(F)F)c(Nc3ccc(C4CCNCC4)c4c3C(=O)N(C)C4)n2)cc1)OCC [Example 247, Diethyl (4-{[4-{[2-methyl-3-oxo-7-(piperidin-4-yl)-2,3-dihydro-1H-isoindol-4-yl]amino}-5-(trifluoromethyl)pyrimidin-2-yl]amino}benzyl)phosphonate]	< 1 µM	< 1 µM		
	CCOP(C)(=O)Cc1ccc(Nc2ncc(C(F)(F)F)c(NCc3cccnc3N(C)S(C)(=O)=O)n2)cc1 (stereo not drawn) [Example 45, Ethyl methyl[4-({4-[({2-[methyl(methylsulfonyl)amino]pyridin-3-yl}methyl)amino]-5-(trifluoromethyl)pyrimidin-2-yl}amino)benzyl]phosphinate]		< 1 µM	< 1 µM	< 1 µM
1 to 10 µM	CN(c1ncccc1CNc1nc(Nc2cccc(P3(=O)OCC(C)(C)CO3)c2)ncc1C(F)(F)F)S(C)(=O)=O [Example 59, N-[3-({[2-{[3-(5,5-dimethyl-2-oxido-1,3,2-dioxaphosphinan-2-yl)phenyl]amino}-5-(trifluoromethyl)pyrimidin-4-yl]amino}methyl)pyridin-2-yl]-N-methylmethanesulfonamide]		< 1 µM		
	CCOP(=O)(Cc1ccc(Nc2ncc(C(F)(F)F)c(Nc3ccc(OC(C)C)c4c3C(=O)N(C)C4)n2)cc1)OCC [Example 207, Diethyl (4-{[4-{[2-methyl-3-oxo-7-(propan-2-yloxy)-2,3-dihydro-1H-isoindol-4-yl]amino}-5-(trifluoromethyl)pyrimidin-2-yl]amino}benzyl)phosphonate]	< 1 µM	< 1 µM		
	CCOP(=O)(Cc1ccc(Nc2ncc(Cl)c(Nc3ccc([C@H]4CC[C@H](O)CC4)c4c3C(=O)N(C)C4)n2)c(OC)c1)OCC [Example 250, Diethyl {4-[(5-chloro-4-{[7-(trans-4-hydroxycyclohexyl)-2-methyl-3-oxo-2,3-dihydro-1H-isoindol-4-yl]amino}pyrimidin-2-yl)amino]-3-methoxybenzyl}phosphonate]	< 1 µM	< 1 µM		
	CCOP(C)(=O)Cc1ccc(Nc2ncc(C(F)(F)F)c(Nc3ccc(-c4cn[nH]c4)c4c3C(=O)N(C)C4)n2)cc1 (stereo not drawn) [Example 67, Ethyl methyl(4-{[4-{[2-methyl-3-oxo-7-(1H-pyrazol-4-yl)-2,3-dihydro-1H-isoindol-4-yl]amino}-5-(trifluoromethyl)pyrimidin-2-yl]amino}benzyl)phosphinate]		< 1 µM	< 1 µM	< 1 µM
	COCCOP(=O)(Cc1ccc(Nc2ncc(C(F)(F)F)c(Nc3cccc4c3C(=O)N(C)C4)n2)c(OC)c1)OCCOC [Example 219, Bis(2-methoxyethyl) [3-methoxy-4-({4-[(2-methyl-3-oxo-2,3-dihydro-1H-isoindol-4-yl)amino]-5-(trifluoromethyl)pyrimidin-2-yl}amino)benzyl]phosphonate]	< 1 µM	< 1 µM		
	CCOP(=O)(Cc1ccc(Nc2ncc(C(F)(F)F)c(Nc3ccc([C@H]4CC[C@@](C)(O)CC4)c4c3C(=O)N(C)C4)n2)cc1)OCC [Example 184, Diethyl (4-{[4-{[7-(cis-4-hydroxy-4-methylcyclohexyl)-2-methyl-3-oxo-2,3-dihydro-1H-isoindol-4-yl]amino}-5-(trifluoromethyl)pyrimidin-2-yl]amino}benzyl) phosphonate]	< 1 µM	< 1 µM		
	CCOP(=O)(Cc1ccc(Nc2ncc(C(F)(F)F)c(Nc3ccc(Br)cc3C(=O)NC)n2)c(OC)c1)OCC [Example 107, Diethyl (4-{[4-{[4-bromo-2-(methylcarbamoyl)phenyl]amino}-5-(trifluoromethyl)pyrimidin-2-yl]amino}-3-methoxybenzyl)phosphonate]	< 1 µM	< 1 µM		
	COCCOP(=O)(Cc1ccc(Nc2ncc(C(F)(F)F)c(Nc3ccc([C@H]4CC[C@H](O)CC4)c4c3C(=O)N(C)C4)n2)c(OC)c1)OCCOC [Example 217, Bis(2-methoxyethyl) (4-{[4-{[7-(trans-4-hydroxycyclohexyl)-2-methyl-3-oxo-2,3-dihydro-1H-isoindol-4-yl]amino}-5-(trifluoromethyl)pyrimidin-2-yl]amino}-3-methoxybenzyl)phosphonate]	< 1 µM	< 1 µM		
	CCOP(=O)(Cc1ccc(Nc2ncc(C(F)(F)F)c(Nc3ccc(-c4cnn([C@H]5CC[C@H](O)CC5)c4)c4c3C(=O)N(C)C4)n2)cc1)OCC [Example 164, Diethyl (4-{[4-({7-[1-(trans-4-hydroxycyclohexyl)-1H-pyrazol-4-yl]-2-methyl-3-oxo-2,3-dihydro-1H-isoindol-4-yl}amino)-5-(trifluoromethyl)pyrimidin-2-yl]amino}benzyl) phosphonate]	< 1 µM	< 1 µM		
	CCOP(C)(=O)Cc1ccc(Nc2ncc(C(F)(F)F)c(Nc3ccc(-c4cnn(CCO)c4)c4c3C(=O)N(C)C4)n2)cc1 (stereo not drawn) [Example 64, Ethyl (4-{[4-({7-[1-(2-hydroxyethyl)-1H-pyrazol-4-yl]-2-methyl-3-oxo-2,3-dihydro-1H-isoindol-4-yl}amino)-5-(trifluoromethyl)pyrimidin-2-yl]amino}benzyl)methylphosphinate]		< 1 µM	< 1 µM	< 1 µM
	CCOP(=O)(Cc1ccc(Nc2ncc(C(F)(F)F)c(Nc3ccc(F)cc3C(=O)NC)n2)c(OC)c1)OCC [Example 102, Diethyl (4-{[4-{[4-fluoro-2-(methylcarbamoyl)phenyl]amino}-5-(trifluoromethyl)pyrimidin-2-yl]amino}-3-methoxybenzyl)phosphonate]	< 1 µM	< 1 µM		
1 to 10 µM	CC(C)OP(=O)(Cc1cccc(Nc2ncc(C(F)(F)F)c(NCc3cccnc3N(C)S(C)(=O)=O)n2)c1)OC(C)C [Example 35, Dipropan-2-yl [3-({4-[({2-[methyl(methylsulfonyl)amino]pyridin-3-yl}methyl)amino]-5-(trifluoromethyl)pyrimidin-2-yl}amino)benzyl]phosphonate]		< 1 µM		
	CCOP(=O)(Cc1ccc(Nc2ncc(C(F)(F)F)c(Nc3ccc(C4CCN(C)CC4)c4c3C(=O)N(C)C4)n2)cc1)OCC [Example 253, Diethyl (4-{[4-{[2-methyl-7-(1-methylpiperidin-4-yl)-3-oxo-2,3-dihydro-1H-isoindol-4-yl]amino}-5-(trifluoromethyl)pyrimidin-2-yl]amino}benzyl)phosphonate]	< 1 µM	< 1 µM		
	CCOP(=O)(Cc1ccc(Nc2ncc(C(F)(F)F)c(Nc3ccc(C(=O)O)c4c3C(=O)N(C)C4)n2)cc1)OCC [Example 128, 7-{[2-({4-[(Diethoxyphosphoryl)methyl]phenyl}amino)-5-(trifluoromethyl)pyrimidin-4-yl]amino}-2-methyl-1-oxo-2,3-dihydro-1H-isoindole-4-carboxylic acid]	1 to 10 µM	< 1 µM		
< 1 µM	CCP(=O)(CC)Cc1cccc(Nc2ncc(C(F)(F)F)c(Nc3ccccc3C(=O)NC)n2)c1 [Example 23, 2-{[2-({3-[(Diethylphosphoryl)methyl]phenyl}amino)-5-(trifluoromethyl)pyrimidin-4-yl]amino}-N-methylbenzamide]		< 1 µM	< 1 µM	< 1 µM
	CCOP(=O)(Cc1ccc(Nc2ncc(C(F)(F)F)c(Nc3ccc(-c4cnn(C)c4)c4c3C(=O)N(C)C4)n2)c(OC)c1)OCC [Example 71, Diethyl (3-methoxy-4-{[4-{[2-methyl-7-(1-methyl-1H-pyrazol-4-yl)-3-oxo-2,3-dihydro-1H-isoindol-4-yl]amino}-5-(trifluoromethyl)pyrimidin-2-yl]amino}benzyl)phosphonate]		< 1 µM	< 1 µM	< 1 µM
	CCOP(C)(=O)Cc1ccc(Nc2ncc(C(F)(F)F)c(Nc3ccc(Br)c4c3C(=O)N(C)C4)n2)cc1 (stereo not drawn) [Example 61, Ethyl [4-({4-[(7-bromo-2-methyl-3-oxo-2,3-dihydro-1H-isoindol-4-yl)amino]-5-(trifluoromethyl)pyrimidin-2-yl}amino)benzyl]methylphosphinate]		< 1 µM	< 1 µM	1 to 10 µM
	CCOP(=O)(Cc1ccc(Nc2ncc(C(F)(F)F)c(Nc3ccc(C4CCC(N5CCCC5)CC4)c4c3C(=O)N(C)C4)n2)c(OC)c1)OCC (stereo not drawn) [Example 242]	< 1 µM	< 1 µM		
1 to 10 µM	CN(c1ncccc1CNc1nc(Nc2ccc(CP(C)(C)=O)cc2)ncc1C(F)(F)F)S(C)(=O)=O [Example 12, N-[3-({[2-({4-[(Dimethylphosphoryl)methyl]phenyl}amino)-5-(trifluoromethyl)pyrimidin-4-yl]amino}methyl)pyridin-2-yl]-N-methylmethanesulfonamide]		< 1 µM	1 to 10 µM	1 to 10 µM
	CCCP(=O)(CCC)c1ccc(Nc2ncc(C(F)(F)F)c(Nc3ccc([C@H]4CC[C@H](O)CC4)c4c3C(=O)N(C)C4)n2)cc1 [Example 198, 7-{[2-{[4-(Dipropylphosphoryl)phenyl]amino}-5-(trifluoromethyl)pyrimidin-4-yl]amino}-4-(trans-4-hydroxycyclohexyl)-2-methyl-2,3-dihydro-1H-isoindol-1-one]	< 1 µM	< 1 µM		
< 1 µM	CCP(=O)(CC)Cc1ccc(Nc2ncc(C(F)(F)F)c(NCc3cccnc3N(C)S(C)(=O)=O)n2)cc1 [Example 10, N-[3-({[2-({4-[(diethylphosphoryl)methyl]phenyl}amino)-5-(trifluoromethyl)pyrimidin-4-yl]amino}methyl)pyridin-2-yl]-N-methylmethanesulfonamide]		< 1 µM	< 1 µM	< 1 µM
